Experimental data published in patent US20160075695A1, “BENZIMIDAZOLE DERIVATIVES AS BROMODOMAIN INHIBITORS” (Gilead Sciences, Inc., priority 2013, published 2016).

Tests used:
MT-4 cells = test: MT-4 proliferation assay; assay type: cell-based; settings: Homo sapiens, MT4, 120 h; Table 2; 5 days, Cell Titer Glo luminescence
Procedure: Compounds were tested in a standardized high-throughput 384-well assay format. Each compound was serially diluted 3-fold in 100% DMSO in polypropylene 384-well plates using a Biomek FX Workstation, and 0.4 μL compound added to an assay plate containing 40 μL RPMI media. Compounds were arranged in a horizontal pattern, with 10 concentrations per compound, and 8 compounds added per plate. Due to low DMSO tolerability, the final DMSO concentration never exceeded 0.5% (v/v). Each assay plate contained 10 μM Puromycin and 0.5% DMSO in RPMI-1640 as positive and negative controls respectively. MT-4 cells (HTLV-1 transformed, human T lymphoblastoid cells, NIH Aids Reagent program) were added in volumes of 35 μL per well and 2,000 cells per well using a Biotek uFlow Workstation (Biotek, Winooski, Vt.), and the plates subsequently incubated for 5 days at 37° C. in an incubator set at 5% CO2 and 90% humidity.
After 5 days, 22 μL Cell Titer Glo (Promega) was added to the assay plates with a Biotek uFlow Workstation. Plates were subsequently placed on a Perkin Elmer Envision Plate Reader for 5 minutes before the luminescence signal was read.

c-Myc in MM.1S cells = test: c-Myc down regulation assay (MSD) in MM.1S cells; assay type: cell-based; settings: Homo sapiens, MM1.S, 24 hrs incubation
Procedure: An enzyme linked immunosorbent assay using the Meso Scale Diagnostic (MSD) technology was used to detect levels of c-Myc produced in MM.1S cells (ATCC). MM.1S cells were cultured in RPMI-1640 media (Corning), supplemented with 10% FBS (Hyclone), 1% penicillin-streptomycin (Cellgro), 2-mercaptoethanol (Gibco) and seeded onto 384-tissue culture treated filter binding plates (Millipore) at a density of 40K cells/well containing titrations of small molecule inhibitors or DMSO (0.4%) in a volume of […] of media. After an incubation time of 24 hrs, cells were lysed (1× lysis buffer (Thermo) supplemented with protease and phosophatase inhibitor cocktail (Thermo)) and the plates centrifuged (1000 rpm, 1 min) to capture c-Myc on MSD plates coated with a monoclonal c-Myc antibody (Origene). Assay wells were washed (3× Invitrogen wash buffer) and probed with a polyclonal c-Myc antibody (Abeam) and MSD detection antibody solution in order to detect levels of c-Myc on the MSD platform. c-Myc capture was reported in pg/ml based on a standard curve using recombinant c-Myc protein (Prosci). EC50 values were calculated from the fit of the dose-response curves to a four-parameter equation. All EC50 values represent geometric mean values of a minimum of four determinations. These assays generally produced results within 3-fold of the reported mean.

MM.1S cells = test: MM.1S viability assay (CellTiter Glo); assay type: cell-based; settings: Homo sapiens, MM1.S, 72 hr incubation, read-out: MM.1S Cell viability (EC50)
Procedure: For cell viability in the MM.1S cell line, cells were seeded onto 384-tissue culture treated plates (Greiner) at a density of 60K cells/well containing titrations of small molecule inhibitors or DMSO (0.2%). After 72 hr incubation cells were analyzed for cell viability by addition of CellTiter Glo (Promega) to the assay plates. After 15 min incubation at room temperature the signal from the viable cells was analyzed on an Envision plate reader (Perkin Elmer). EC50 values were calculated from the fit of the dose-response curves to a four-parameter equation. All EC50 values represent geometric mean values of a minimum of four determinations. These assays generally produced results within 3-fold of the reported mean.

BRD4-1 [1] = target: T1, BRD4-1 (Homo sapiens, UniProt O60885); test: BRD4-1 Ligand KI assay (TR-FRET, Cy5 labeled probe displacement); assay type: binding
T1 construct: made in house; host or cells: Escherichia coli
Procedure: (§1) Binding of the two tandem bromodomains, BRD4-I and BRD4-2, to a Cy5 labeled probe/ligand (Compound 1020-501) were measured using a homogeneous time resolved fluorescence resonance energy transfer (TR-FRET) assay.
(§2) The labeled ligand specifically binds BRD4-1 and BRD4-2 and can be displaced by a small molecule inhibitor that shares a similar or overlapping binding site. BRD4-I and BRD4-2 were expressed and purified from Escherichia coli as N-terminal His6-tagged proteins. A Eu-cryptate labeled anti-His antibody (Perkin Elmer) was used to specifically bind BRD4. […] Assays were performed in 50 mM Hepes (pH 7.5), 150 mM NaCl, 0.1 mg/ml BSA, 0.01% (v/v) Brij, 0.5% (v/v) DMSO and 1.0 nM labeled ligand at the following concentrations for each BRD4 isoform: 2 nM BRD4-1 and 0.5 nM BRD4-2. After an assay reaction time of 60 minutes at 25° C., binding was measured with 2 nM Eu-cryptate labeled anti-His antibody. TR-FRET signal was detected on an Envision plate reader (Ex: 320 nm; Em: 615/665 nm; 100 μs delay and 200 μs read window). […] All IC50 values represent geometric mean values of a minimum of four determinations. The IC50 values were converted to Ki values (dissociation constant for BRD4-inhibitor complex) using the Cheng and Prusoff equation for a competitive inhibitor mode of action. These assays generally produced results within 3-fold of the reported mean.

BRD4-2 [2] = target: T2, BRD4-2 (Homo sapiens, UniProt O60885); test: BRD4-2 Ligand KI assay (TR-FRET, Cy5 labeled probe displacement); assay type: binding
T2 construct: made in house; host or cells: Escherichia coli
Procedure: as §1, §2

BRD4-1 [3] = target: T1, BRD4-1; test: HTRF (TR-FRET) assay, BRD4-1 binding to acetylated histone H4 peptide; settings: 60 nM BRD4-1, 200 nM H4 peptide, 60 minutes at 25° C.; geometric mean of a minimum of four determinations; read-out: HTRF BRD4-1 (IC50)
Procedure: (§3) Binding of the two tandem bromodomains, BRD4-1 and BRD4-2, to an acetylated histone H4 peptide was measured using a homogeneous time resolved fluorescence resonance energy transfer (TR-FRET) assay. […] BRD4-1 and BRD4-2 were expressed and purified from Escherichia coli as N-terminal His6-tagged proteins. An XL665 labeled anti-His antibody (Cisbio) was used to specifically bind BRD4 and a cryptate labeled streptavidin protein was used because it specifically recognized the biotinylated H4 peptide. […] After an assay reaction time of 60 minutes at 25° C., binding was measured with 2 nM crytptate labeled streptavidin and 10 nM anti-His-XL665 antibody. TR-FRET signal was detected on an Envision plate reader (Ex: 320 nm; Em: 615/665 nm; 100 us delay and 200 μs read window). […] All IC50 values represent geometric mean values of a minimum of four determinations.

BRD4-2 [4] = target: T2, BRD4-2; test: HTRF (TR-FRET) assay, BRD4-2 binding to acetylated histone H4 peptide; settings: 120 nM BRD4-2, 200 nM H4 peptide, 60 minutes at 25° C.; geometric mean of a minimum of four determinations; read-out: HTRF BRD4-2 (IC50)
Procedure: as §3

BRD4-1 [5] = target: T1, BRD4-1; test: Alpha assay, BRD4-1 binding to acetylated histone H4 peptide; settings: 15 nM BRD4-1, 200 nM H4 peptide, 60 minutes at 25° C.; geometric mean of a minimum of four determinations; read-out: Alpha Assay (IC50)
Procedure: Binding of the bromodomain BRD4-I to an acetylated histone H4 peptide was measured using a bead-based Amplified Luminescent Proximity Homogeneous Assay (ALPHA). […] BRD4-I was expressed and purified from Escherichia coli as an N-terminal His6-tagged protein. Nickel-Chelate ALPHA acceptor beads (Perkin Elmer) were used to specifically bind BRD4-1 and ALPHA streptavidin donor beads (Perkin Elmer) were used because they specifically recognized the biotinylated H4 peptide. […] Assays were performed in 50 mM Hepes (pH 7.5), 150 mM NaCl, 0.1 mg/ml BSA, 0.01% (v/v) Brij, 0.5% (v/v) DMSO, 200 nM H4 peptide and 15 nM of BRD4-1 protein. After an assay reaction time of 60 minutes at 25° C., binding was measured with 20 μg/ml streptavidin donor beads and 20 μg/ml nickle-chelate acceptor beads. ALPHA signal was detected on an Envision plate reader (Ex: 320 nm; Em: 570 nm; Ex time: 180 ms). […] All IC50 values represent geometric mean values of a minimum of four determinations.

[6] = 2 nM BRD4-1, 1.0 nM labeled ligand, 60 minutes at 25° C., read-out: BRD4-1 Ligand KI (IC50)
[7] = 0.5 nM BRD4-2, 1.0 nM labeled ligand, 60 minutes at 25° C., read-out: BRD4-2 Ligand KI (IC50)

Cc1noc(C)c1-c1cc(C(O)(c2cccnn2)C2CCCO2)c2nc(C3CC3)[nH]c2c1 (single isomer, unassigned) [Compound 1020-289, (2-cyclopropyl-6-(3,5-dimethylisoxazol-4-yl)-1H-benzo[d]imidazol-4-yl)(pyridazin-3-yl)(tetrahydrofuran-2-yl)methanol]
EC50 (MT-4 cells): 4.2 nM | EC50 (c-Myc in MM.1S cells): 5.7 nM | EC50 (MM.1S cells): 17.8 nM

Cc1noc(C)c1-c1cc(C(O)(c2ccccn2)c2ccccn2)c2nc(C3CC3)[nH]c2c1F [Compound 1020-224, (2-cyclopropyl-6-(3,5-dimethylisoxazol-4-yl)-7-fluoro-1H-benzo[d]imidazol-4-yl)di(pyridin-2-yl)methanol]
IC50 (BRD4-1 [1]): 10.8 nM | IC50 (BRD4-2 [2]): 20.2 nM

Cc1noc(C)c1-c1cc(C(O)(c2nccs2)c2nccs2)c2nc(C3CC3)[nH]c2c1 [Compound 1020-103, (2-cyclopropyl-6-(3,5-dimethylisoxazol-4-yl)-1H-benzo[d]imidazol-4-yl)di(thiazol-2-yl)methanol]
IC50 (BRD4-1 [1]; [6]): 4 nM | IC50 (BRD4-2 [2]; [7]): 12.4 nM

Cc1noc(C)c1-c1cc(C(O)(c2ccccc2)c2cccnc2)c2nc(C3CC3)[nH]c2c1 (centres unmarked) [Compound 1020-112, (2-cyclopropyl-6-(3,5-dimethylisoxazol-4-yl)-1H-benzo[d]imidazol-4-yl)(phenyl)(pyridin-3-yl)methanol]
IC50 (BRD4-1 [1]; [6]): 10.4 nM | IC50 (BRD4-2 [2]; [7]): 13.5 nM

Cc1cccc(C(O)(c2cc(-c3c(C)noc3C)cc3[nH]c(C4CC4)nc23)C2CCCO2)n1 (racemic) [Compound 1020-114, (2-cyclopropyl-6-(3,5-dimethylisoxazol-4-yl)-1H-benzo[d]imidazol-4-yl)(6-methylpyridin-2-yl)(tetrahydrofuran-2-yl)methanol]
IC50 (BRD4-1 [1]; [6]): 3.8 nM | IC50 (BRD4-2 [2]; [7]): 2.7 nM

Cc1noc(C)c1-c1cc(C(O)(c2ccccc2)c2ccccn2)c2nc(C3CC3)[nH]c2c1 (centres unmarked) [Compound 1020-113, (2-cyclopropyl-6-(3,5-dimethylisoxazol-4-yl)-1H-benzo[d]imidazol-4-yl)(phenyl)(pyridin-2-yl)methanol]
IC50 (BRD4-1 [1]; [6]): 10.7 nM | IC50 (BRD4-2 [2]; [7]): 12.8 nM

Cc1noc(C)c1-c1cc(C(O)(c2ccccn2)c2ccccn2)c2nc(C3CC3)[nH]c2c1 [Compound 1020-104, (2-cyclopropyl-6-(3,5-dimethylisoxazol-4-yl)-1H-benzo[d]imidazol-4-yl)di(pyridin-2-yl)methanol]
IC50 (BRD4-1 [1]; [6]): 7.2 nM | IC50 (BRD4-2 [2]; [7]): 11.7 nM

Cc1ccc2ncccc2c1-c1cc(-c2c(C)noc2C)cc2[nH]c(C(F)(F)F)nc12 [Compound 1020-92, 3,5-Dimethyl-4-(4-(6-methylquinolin-5-yl)-2-(trifluoromethyl)-1H-benzo[d]imidazol-6-yl)isoxazole]
IC50 (BRD4-1 [3]): 133 nM | IC50 (BRD4-2 [4]): 102 nM | IC50 (BRD4-1 [5]): 37.7 nM

CCC1CCC(=O)N1c1cc(-c2c(C)noc2C)cc2[nH]c(C3CC3)nc12 (centres unmarked) [Compound 1020-137, 1-(2-Cyclopropyl-6-(3,5-dimethylisoxazol-4-yl)-1H-benzo[d]imidazol-4-yl)-5-ethylpyrrolidin-2-one]
IC50 (BRD4-1 [3]): 187 nM | IC50 (BRD4-2 [4]): 399 nM | IC50 (BRD4-1 [5]): 52.8 nM

Cc1noc(C)c1-c1cc(C(O)(c2ncccn2)c2ccc(F)cc2F)c2nc(C3CC3)[nH]c2c1 (centres unmarked) [Compound 1020-257, (2-Cyclopropyl-6-(3,5-dimethylisoxazol-4-yl)-1H-benzo[d]imidazol-4-yl)(2,4-difluorophenyl)(pyrimidin-2-yl)methanol]
IC50 (BRD4-1 [1]; [6]): 4.7 nM | IC50 (BRD4-2 [2]; [7]): 5.6 nM

Cc1noc(C)c1-c1cc(C(C)c2ccc(F)cc2)c2[nH]c(C3CC3)nc2c1 (centres unmarked) [Compound 1020-44, 4-(2-Cyclopropyl-4-(1-(4-fluorophenyl)ethyl)-1H-benzo[d]imidazol-6-yl)-3,5-dimethylisoxazole]
IC50 (BRD4-1 [3]): 139 nM | IC50 (BRD4-2 [4]): 111 nM | IC50 (BRD4-1 [5]): 22 nM
